Reference: patent publication US20080058421A1, “COMPOSITIONS FOR CLEANING AND DISINFECTING NASAL TRACT AND SINUS CAVITY” (priority 2006, published 2008)

Tests used:
Assay type in all cases: cell-based
[1] = test system: Escherichia coli ATCC 11229; assay: A.O.A.C. sanitizer and germicidal detergent test
Description: (§1) The bacterial cultures were purchased from the American Type Culture Collection (ATCC), (Bethesda, Md.). Escherichia coli and Staphylococcus aureus are used to represent both gram-negative and gram-positive bacterial classes. This test is used by the US EPA for to determine compliance for a product to be used as a sanitizing agent. A product that reduces population density of both types of bacteria in 30 seconds by 99.999% satisfies the requirement as a sanitizing agent.

[2] = test system: Staphylococcus aureus ATCC 6538; assay: A.O.A.C. sanitizer and germicidal detergent test
Description: as §1

[3] = test system: A. h. 7965 (Aeromonas hydrophila); assay: modified A.O.A.C. germicidal and detergent sanitizer test
Protocol: (§2) The efficacy of the sanitizers in Examples 1, 2 and 3 was further evaluated with […] as controls against Salmonella typhimurium, Listeria monocytogenes, Aeromonas hydrophila, and Pseudomonas aeruginosa essentially by the modified detergent and germicidal sanitizer test of the A.O.A.C. The sanitizers were tested against both natural isolates and the antibiotic resistant strains of Listeria monocytogenes and Salmonella typhimurium. Each of the antibiotic resistant strains was used separately as well as in a composite strain prepared by mixing equal numbers of five different antibiotic resistant strains of Listeria monocytogenes or those of Salmonella typhimurium, respectively.

[4] = test system: L. m. 7644 (Listeria monocytogenes); assay: as above
Protocol: as §2

[5] = test system: P. a. 10145 (Pseudomonas aeruginosa); assay: as above
Protocol: as §2

[6] = test system: S. t. 7823 (Salmonella typhimurium); assay: as above
Protocol: as §2

[7] = sanitizer criterion is 99.999% reduction in 30 seconds

OCl [Hypochlorite]
meets criterion of a sanitizer (99.999% reduction in 30 seconds) ([1]; Fifty ppm hypochlorite): meets the criterion of a sanitizer
% Kill E. coli [1, 7]: >99.999%
meets criterion of a sanitizer (99.999% reduction in 30 seconds) ([2]; Fifty ppm hypochlorite): meets the criterion of a sanitizer
% Kill Staph. aureus [2, 7]: >99.999%
% Kill ([3]; 30 seconds contact): >99.999%
% Kill ([3]; 60 seconds contact): >99.999%
% Kill ([4]; 30 seconds contact): >99.999%
% Kill ([4]; 60 seconds contact): >99.999%
% Kill ([5]; 30 seconds contact): >99.999%
% Kill ([5]; 60 seconds contact): >99.999%
% Kill ([6]; 30 seconds contact): <99.999%
Number of surviving bacteria/ml after contact, cfu/ml ([6]; 30 seconds contact, HOCL = 50 ppm, duplicate counts): T@, T@
% Kill ([6]; 60 seconds contact): >99.999%
